This is an account of results in paper PMC6993142 (Journal of natural products, 2017).

Data set [1] in a line: MTS dye cytotoxicity assay, normal HFF cells. In kind it is cell-based. The note with it: human, HFF cells (normal foreskin fibroblasts).
The nature of data set [2]: MTS dye cytotoxicity assay, whole panel. In kind it is cell-based. The note with it: human.
In data set [3] the test system is LNCaP (androgen-sensitive human prostate adenocarcinoma). The data set is described as follows: MTS dye cytotoxicity assay, LNCaP. To be noted: for IC50: Homo sapiens, LNCaP, 72 h, read-out: Cytotoxicity IC50, LNCaP, LNCaP, 72 h, MTS. In kind it is cell-based.
Data set [4] has as its system A549, Hep G2, Hep 3B, MCF-7 and MDA-MB-231 cell lines. To be noted: MCF-7, MDA-MB-231, ref 11f; cited from earlier work.
Data set [5] concerns MCF-7, MDA-MB-231, H1299, Ca9–22 and HT-29 cells. To be noted: MCF-7, MDA-MB-231, H1299, Ca9–22, HT-29; ref 11j, 11h, 11k, 11n; cited from earlier work.
Data set [6] concerns ACHN (human renal adenocarcinoma). Nature of the data set: MTS dye cytotoxicity assay, ACHN. In kind it is cell-based. To be noted: of the 26 withanolides tested.
The subject of data set [7] is RC cells (ACHN, Caki-1, and SN-12-C). To be noted: in the presence of TRAIL; cited from earlier work.
In data set [8] the test system is LNCaP (androgen-sensitive human prostate adenocarcinoma). The note with it: previously shown; cited from earlier work.

For the compound `CC1=C(C)[C@H](O)[C@H]([C@](C)(O)[C@]2(O)CC[C@@]3(O)[C@@H]4C[C@H]5O[C@]56CC=CC(=O)[C@]6(C)[C@H]4CC[C@]23C)OC1=O` [Compound 6, (20S,22R)-5β,6β-epoxy-14α,17β,20,23β-tetrahydroxy-1-oxowitha-2,24-dienolide], the IC50 at 72 h in data set [1] is above 2000 nM.

As to `CC1=C(C)C(=O)O[C@@H]([C@](C)(O)C2=CC[C@@]3(O)[C@@H]4C[C@H]5O[C@]56CC=CC(=O)[C@]6(C)[C@H]4CC[C@]23C)C1` [Compound 7, (20S,22R)-5β,6β-epoxy-14α,20-dihydroxy-1-oxowitha-2,16,24-trienolide], in data set [2], the IC50 at 72 h is above 5000 nM.

Regarding `CC1=C(C)C(=O)O[C@@H]([C@](C)(O)[C@]2(O)CC[C@@]3(O)[C@@H]4[C@@H](O)C=C5CC=CC(=O)[C@]5(C)[C@H]4CC[C@]23C)C1` [Compound 8, (20S,22R)-7β,14α,17β,20-tetrahydroxy-1-oxowitha-2,5,24-trienolide], in data set [3], the IC50 was below 2000 nM. In data set [1], this compound registered an IC50 at 72 h above 2000 nM.

For `CC1=C(C)C(=O)O[C@@H]([C@](C)(O)[C@]2(O)CC[C@@]3(O)[C@@H]4[C@@H](O)C=C5C=CCC(=O)[C@]5(C)[C@H]4CC[C@]23C)C1` [Compound 9, (20S,22R)-7β,14α,17β,20-tetrahydroxy-1-oxowitha-3,5,24-trienolide], the IC50 in data set [3] is below 2000 nM. The half-inhibitory concentration (IC50) at 72 h in data set [1] was above 2000 nM.

In data set [2], `C[C@H]1C(=O)O[C@@H]([C@](C)(O)[C@H]2CC[C@@]3(O)[C@@H]4CC=C5CC=CC(=O)[C@]5(C)[C@H]4CC[C@]23C)[C@@H](O)[C@@H]1CO` [Compound 10, (20S,22R)-14α,20,23β,28-tetrahydroxy-1-oxowitha-2,5-dienolide] yielded a concentration for half-maximal inhibition (IC50) at 72 h above 5000 nM.

Consider `C[C@H]1C[C@H]([C@](C)(O)[C@]2(O)CC[C@@]3(O)[C@@H]4C[C@H]5O[C@]56CC=CC(=O)[C@]6(C)[C@H]4CC[C@]23C)OC(=O)[C@@H]1C` [Compound 11, (20S,22R,24S,25R)-5β,6β-epoxy-14α,17β,20-trihydroxy-1-oxowitha-2-enolide], for which the IC50 at 72 h in data set [1] was above 2000 nM.

On to `CC1=C(C)C(=O)O[C@@H]([C@](C)(O)[C@]2(O)CC[C@@]3(O)[C@@H]4C[C@H]5O[C@]56[C@@H](O)C=CC(=O)[C@]6(C)[C@H]4CC[C@]23C)C1` [Compound 12, 4β-hydroxywithanolide E], for which, in data set [1], the IC50 at 72 h was above 2000 nM. For the same compound, the “Cytotoxic to cancer cell lines” value in data set [4] is “cytotoxic”. Further, in data set [5], the Inhibition of proliferation entry is listed as “inhibit proliferation”.

In the case of `CC1=C(C)C(=O)O[C@@H]([C@](C)(O)[C@]2(O)CC[C@@]3(O)[C@@H]4C[C@H]5O[C@]56CC=CC(=O)[C@]6(C)[C@H]4CC[C@]23C)C1` [Compound 13, withanolide E], the “Selectivity for renal carcinoma (ACHN) cells” value (shortened to “Selectivity”) in data set [6] is on record as “showed selectivity”. In data set [1], this compound registered an IC50 at 72 h above 2000 nM. Also, the “Cytotoxic to cancer cell lines” value in data set [4] is recorded as “cytotoxic”. For the same compound, the “Long-term survival of RC cells” value in data set [7] is “eliminate long-term survival”.

Regarding `CC1=C(C)C(=O)O[C@@H]([C@](C)(O)C2=CC[C@@]3(O)[C@@H]4C[C@H]5O[C@]56[C@@H](O)C=CC(=O)[C@]6(C)[C@H]4CC[C@]23C)C1` [Compound 14, phyperunolide A], in data set [2], the IC50 at 72 h is above 5000 nM. In data set [4], the “Cytotoxic to cancer cell lines” value is recorded as “cytotoxic”.

With `CO[C@H]1C=CC(=O)[C@]2(C)[C@H]3CC[C@]4(C)[C@](O)([C@@](C)(O)[C@H]5CC(C)=C(C)C(=O)O5)CC[C@@]4(O)[C@@H]3C[C@H]3O[C@]132` [Compound 15, withangulatin E], the IC50 in data set [3] is below 2000 nM. This compound also came in with an IC50 at 72 h in data set [1] above 2000 nM.

For the compound `CO[C@]12CC=CC(=O)[C@]1(C)[C@H]1CC[C@]3(C)[C@](O)([C@@](C)(O)[C@H]4CC(C)=C(C)C(=O)O4)CC[C@@]3(O)[C@@H]1C[C@H]2O` [Compound 16, withanolide S 5-methyl ether], the IC50 at 72 h in data set [2] was above 5000 nM.

With `CC1=C(C)C(=O)O[C@@H]([C@](C)(O)[C@]2(O)CC[C@@]3(O)[C@@H]4C[C@H](Cl)[C@]5(O)[C@@H](O)C=CC(=O)[C@]5(C)[C@H]4CC[C@]23C)C1` [Compound 17, physalolactone], the IC50 at 72 h in data set [2] was above 5000 nM.

Turning to `CC1=C(C)C(=O)O[C@@H]([C@](C)(O)[C@]2(O)CC[C@@]3(O)[C@@H]4C[C@@H](O)[C@@]5(O)CC=CC(=O)[C@]5(C)[C@H]4CC[C@]23C)C1` [Compound 18, withanolide S], the IC50 at 72 h in data set [2] is above 5000 nM.

Compound `CC1=C(C)C(=O)O[C@@H]([C@](C)(O)[C@]2(O)CC[C@@]3(O)[C@@H]4[C@@H](O)[C@H]5O[C@]56CC=CC(=O)[C@]6(C)[C@H]4CC[C@]23C)C1` [Compound 19, withaperuvin L] returned an IC50 at 72 h in data set [1] above 2000 nM.

Turning to `CC1=C(C)C(=O)O[C@@H]([C@](C)(O)[C@]2(O)CC[C@@]3(O)[C@@H]4CC=C5[C@@H](O)C=CC(=O)[C@]5(C)[C@H]4CC[C@]23C)C1` [Compound 20, physapruin A], in data set [6], the “Selectivity” value is given as “showed selectivity”. Besides, the IC50 at 72 h in data set [1] is above 2000 nM.

`CC1=C(CO)C[C@H]([C@](C)(O)[C@]2(O)CC[C@@]3(O)[C@@H]4CC=C5CC=CC(=O)[C@]5(C)[C@H]4CC[C@]23C)OC1=O` [Compound 21, withaperuvin J] came in with an IC50 at 72 h in data set [1] above 2000 nM.

For `CC1=C(C)C(=O)O[C@@H]([C@](C)(O)[C@]2(O)CC[C@@]3(O)[C@@H]4CC=C5CC=CC(=O)[C@]5(C)[C@H]4CC[C@]23C)C1` [Compound 22, withanolide F], the IC50 at 72 h in data set [1] was above 2000 nM.

With `CC1=C(C)C(=O)O[C@@H]([C@](C)(O)[C@]2(O)CC[C@@]3(O)[C@@H]4C[C@H](Cl)[C@]5(O)CC=CC(=O)[C@]5(C)[C@H]4CC[C@]23C)C1` [Compound 23, 4-deoxyphysalolactone], in data set [2], the IC50 at 72 h was above 5000 nM.

As for `C[C@H]1C(=O)OC[C@H]1C[C@@H](O)[C@](C)(O)[C@]1(O)CC[C@@]2(O)[C@@H]3CC=C4CC=CC(=O)[C@]4(C)[C@H]3CC[C@]12C` [Compound 24, perulactone B], the IC50 at 72 h in data set [2] is above 5000 nM.

`C[C@H]1C(=O)OC[C@H]1C[C@@H](O)[C@](C)(O)[C@@]1(O)CC[C@@]2(O)[C@@H]3CC=C4CC=CC(=O)[C@]4(C)[C@H]3CC[C@]12C` [Compound 25, perulactone H] showed an IC50 at 72 h in data set [2] above 5000 nM.

Turning to `CC(=O)OC[C@]12CC[C@H]3[C@@H](C[C@H]4O[C@]45CC=CC(=O)[C@]35C)[C@]1(O)CC[C@@]2(O)[C@@](C)(O)[C@H]1CC(C)=C(C)C(=O)O1` [Compound 26, Physachenolide C, reference compound], in data set [3] (LNCaP cells, acetoxylation at C-18), the “Enhancement of activity (26 vs 13)” value came out at 3 fold. Besides, the “Selectivity” value in data set [6] is given as “showed selectivity”. Further, the IC50 at 72 h in data set [1] was above 2000 nM. In data set [8], the “Activity for LNCaP cells” value is “selective and potent activity”.

Consider `CC1=C(C)C(=O)O[C@@H]([C@](C)(O)[C@]2(O)CC[C@@]3(O)[C@@H]4C[C@@H](O)[C@@]5(Cl)CC=CC(=O)[C@]5(C)[C@H]4CC[C@]23C)C1` [Compound 27, withanolide C, reference compound], for which, in data set [4], the “Cytotoxic to cancer cell lines” value is “cytotoxic”.
